# Patent US7446195B2, “High affinity thiophene-based and furan-based kinase ligands” (Schering Corporation, priority 2005, dated 2008)
# Target: CDK-2 (Homo sapiens, UniProt P24941)
# Assay: CDK-2 inhibition (Table 1; fluorescence polarization displacement assay)
# Format: binding
# Conditions: inhibitory effectiveness toward CDK-2
# Protocol: The affinity of lead inhibitors binding to CDK-2 and CDK-2/cyclin A were determined by measuring a Ki value using a fluorescence polarization displacement assay. The deacetylated form of compound BMS-250595 was reacted with Alexa Fluor 647 to generate a compound (BMS-Alexa Fluor647) that bound to both proteins and provided a signal for fluorescence polarization displacement. Binding assays were performed in a 384 well Costar NBS coated plate. A total volume of […] contained concentrations of CDK-2 or CDK-2/cyclin A at […], respectively. The concentration of BMS-Alexa Fluor647 was 50 nM. Serial dilutions of compounds were added to 12 wells. The final buffer concentration was 10 mM Hepes, pH 7.5, 150 mM NaCl, and 1 mM DTT. Samples were incubated at room temperature for 15 minutes and then read in an Analyst HT instrument using an excitation and emission wavelength of 580 and 680 nm, respectively. The […] curve fitting tool described by Zhang et al., 2004 (Zhang R., Mayhood T., Lipari P., Wang Y., Durkin D., Syto R., Gesell J., McNemar C., and Windsor W., Analytical Biochemistry 331 (2004) 138-146)
row,IC50,Structure (SMILES)
1,≥ 40 µM,O=C(Nc1ccc(C(=O)Nc2ccc(-n3cncn3)cc2)o1)c1ccccc1 [Compound 183]
2,≥ 40 µM,Cc1ccccc1C(=O)Nc1ccc(C(=O)Nc2ccc(-n3cncn3)cc2)o1 [Compound 184]
3,≥ 40 µM,O=C(Nc1ccc(C(=O)Nc2ccc(-n3cncn3)cc2)o1)c1ccncc1 [Compound 185]
4,≥ 40 µM,COc1ccc(C(=O)Nc2ccc(C(=O)Nc3ccc(-n4cncn4)cc3)o2)c(C)c1 [Compound 186]
5,≥ 40 µM,O=C(Nc1ccc(-n2cncn2)cc1)c1ccc(NC(=O)C2CCCCC2)o1 [Compound 187]
6,≥ 40 µM,COc1ccc(C(=O)Nc2ccc(C(=O)N3CCC(c4ccccn4)C3)s2)c(C)c1 (stereo not shown) [Compound 188]
7,≥ 40 µM,COc1ccc(C(=O)Nc2ccc(C(=O)N3CCC(c4ccncc4)C3)s2)c(C)c1 (stereo not shown) [Compound 189]
8,≥ 40 µM,COc1ccc(C(=O)Nc2ccc(C(=O)N3CCC(c4ccccn4)C3)o2)c(C)c1 (stereo not shown) [Compound 190]
9,≥ 40 µM,COc1ccc(C(=O)Nc2ccc(C(=O)N3CCC(c4ccncc4)C3)o2)c(C)c1 (stereo not shown) [Compound 191]
10,≥ 40 µM,COc1ccc(C(=O)Nc2ccc(C(=O)N3CCC(Oc4cnccn4)CC3)o2)c(C)c1 [Compound 192]
11,≥ 40 µM,COc1ccc(C(=O)Nc2ccc(C(=O)Nc3ccc(-n4ccnc4)cc3)o2)c(C)c1 [Compound 193]
12,≥ 40 µM,O=C(Nc1ccc(C(=O)Nc2ccc(-n3cncn3)cc2)s1)c1ccncc1 [Compound 194]
13,≥ 40 µM,Cn1nc(-c2cccs2)cc1NC(=O)c1ccc(C(=O)Nc2ccc(-n3cncn3)cc2)s1 [Compound 195]
14,≥ 40 µM,Cn1nc(-c2ccc(Cl)cc2)cc1NC(=O)c1ccc(C(=O)Nc2ccc(-n3cncn3)cc2)s1 [Compound 196]
15,≥ 40 µM,O=C(Nc1ccc(-n2cncn2)cc1)c1ccc(C(=O)Nc2cc(-c3ccco3)n[nH]2)s1 [Compound 197]
16,≥ 40 µM,COc1ccc(NCc2ccc(C(=O)Nc3ccc(-n4cncn4)cc3)o2)c(C)c1 [Compound 198]
17,≥ 40 µM,O=C(Nc1ccc(-n2cncn2)c(F)c1)c1ccc(C(=O)Nc2ccccc2Oc2ccccc2)s1 [Compound 199]

row,IC50,Structure (SMILES)
1,≥ 40 µM,O=C(Nc1ccc(-n2cncn2)c(F)c1)c1ccc(C(=O)Nc2ccccc2OCc2ccccc2)s1 [Compound 200]
2,≥ 40 µM,CCOc1ccccc1NC(=O)c1ccc(C(=O)Nc2ccc(-n3cncn3)c(F)c2)s1 [Compound 201]
3,≥ 40 µM,O=C(Nc1ccc(-n2cncn2)c(F)c1)c1ccc(C(=O)Nc2ccccc2OCc2ccncc2)s1 [Compound 202]
4,≥ 40 µM,O=C(Nc1ccc(-n2cncn2)c(F)c1)c1ccc(C(=O)Nc2ccccc2OC2CCCCC2)s1 [Compound 203]
5,≥ 40 µM,O=C(Nc1ccc(-n2cncn2)c(F)c1)c1ccc(C(=O)Nc2ccccc2COc2ccccc2)s1 [Compound 204]
6,≥ 40 µM,O=C(Nc1ccc(-n2cncn2)c(F)c1)c1ccc(C(=O)Nc2ccccc2Oc2cccnc2)s1 [Compound 205]
7,≥ 40 µM,COc1ccccc1NC(=O)c1ccc(C(=O)Nc2ccc(-n3cncn3)c(F)c2)s1 [Compound 206]
8,≥ 40 µM,O=C(Nc1ccc(-n2cncn2)c(F)c1)c1ccc(C(=O)Nc2ccccc2N2CCOCC2)s1 [Compound 207]
9,≥ 40 µM,O=C(Nc1ccc(-n2cncn2)c(F)c1)c1ccc(C(=O)Nc2ccccc2-n2cccn2)s1 [Compound 208]
10,≥ 40 µM,CN1CCN(c2ccccc2NC(=O)c2ccc(C(=O)Nc3ccc(-n4cncn4)c(F)c3)s2)CC1 [Compound 209]
11,≥ 40 µM,CN1CCC(N(C)C(=O)c2ccc(C(=O)Nc3ccc(-n4cncn4)c(F)c3)o2)CC1 [Compound 210]
12,≥ 40 µM,O=C(Nc1ccc(-n2cncn2)c(F)c1)c1ccc(C(=O)N2CCOCC2)o1 [Compound 211]
13,≥ 40 µM,CN(C)CCNC(=O)c1ccc(C(=O)Nc2ccc(-n3cncn3)c(F)c2)o1 [Compound 212]
14,≥ 40 µM,CN(C(=O)c1ccc(C(=O)Nc2ccc(-n3cncn3)c(F)c2)o1)C1CCCCC1 [Compound 213]
15,≥ 40 µM,CN1CCC(NC(=O)c2ccc(C(=O)Nc3ccc(-n4cncn4)c(F)c3)o2)CC1 [Compound 214]
16,≥ 40 µM,CNC(=O)c1ccc(C(=O)Nc2ccc(-n3cncn3)c(F)c2)o1 [Compound 215]
17,≥ 40 µM,CN(C)C(=O)c1ccc(C(=O)Nc2ccc(-n3cncn3)c(F)c2)o1 [Compound 216]

# Continued, molecule first:
row,Structure (SMILES),IC50
1,CC(C)[C@@H](CO)NC(=O)c1ccc(C(=O)Nc2ccc(-n3cncn3)cc2)s1 [Compound 153],≥ 40 µM
2,O=C(NC[C@H](O)c1ccccc1)c1ccc(C(=O)Nc2ccc(-n3cncn3)cc2)s1 [Compound 154],≥ 40 µM
3,Cc1cnc(NC(=O)c2ccc(C(=O)Nc3ccc(-n4cncn4)cc3)s2)s1 [Compound 155],≥ 40 µM
4,O=C(NCCc1ccccn1)c1ccc(C(=O)Nc2ccc(-n3cncn3)cc2)s1 [Compound 156],≥ 40 µM
5,COc1cccc(NC(=O)c2ccc(C(=O)Nc3ccc(-n4cncn4)cc3)s2)c1 [Compound 157],≥ 40 µM
6,O=C(NCc1nc2ccccc2[nH]1)c1ccc(C(=O)Nc2ccc(-n3cncn3)cc2)s1 [Compound 158],≥ 40 µM
7,Cn1c(NC(=O)c2ccc(C(=O)Nc3ccc(-n4cncn4)cc3)s2)nc2ccccc21 [Compound 159],≥ 40 µM
8,O=C(Nc1ccc(-n2cncn2)cc1)c1ccc(C(=O)Nc2ccc3c(c2)C(=O)OC3)s1 [Compound 160],≥ 40 µM
9,O=C(Nc1ccc(-n2cncn2)cc1)c1ccc(C(=O)Nc2ccc3ncsc3c2)s1 [Compound 161],≥ 40 µM
10,O=C(Nc1ccc(-n2cncn2)cc1)c1ccc(C(=O)Nc2cccc(-c3cnco3)c2)s1 [Compound 162],≥ 40 µM
11,O=C(Nc1ccc(-n2cncn2)cc1)c1ccc(C(=O)Nc2cccc(O)c2)s1 [Compound 163],≥ 40 µM
12,Nc1ccc(CNC(=O)c2ccc(C(=O)Nc3ccc(-n4cncn4)cc3)s2)cn1 [Compound 164],≥ 40 µM
13,O=C(Nc1ccc(-n2cncn2)cc1)c1ccc(C(=O)Nc2ccccc2Cl)s1 [Compound 165],≥ 40 µM
14,O=C(Nc1ccc(-n2cncn2)cc1)c1ccc(C(=O)Nc2cc(F)ccc2F)s1 [Compound 166],≥ 40 µM
15,COc1ccc(NC(=O)c2ccc(C(=O)Nc3ccc(-n4cncn4)cc3)s2)cc1O [Compound 167],≥ 40 µM
16,COc1ccc(NC(=O)c2ccc(C(=O)Nc3ccc(-c4c(C)noc4C)cc3)s2)c(C)c1 [Compound 168],≥ 40 µM
17,COc1ccc(NC(=O)c2ccc(C(=O)Nc3ccc4ncccc4c3)s2)c(C)c1 [Compound 169],≥ 40 µM
18,COc1ccc(NC(=O)c2ccc(C(=O)Nc3ccc4nc(C)ccc4c3)s2)c(C)c1 [Compound 170],≥ 40 µM
19,COc1ccc(NC(=O)c2ccc(C(=O)Nc3ccc4c(cnn4C)c3)s2)c(C)c1 [Compound 171],≥ 40 µM
20,COc1ccc(NC(=O)c2ccc(C(=O)Nc3ccc4nccnc4c3)s2)c(C)c1 [Compound 172],≥ 40 µM
21,COc1ccc(NC(=O)c2ccc(C(=O)Nc3ccc4scnc4c3)s2)c(C)c1 [Compound 173],≥ 40 µM
22,COc1ccc(NC(=O)c2ccc(C(=O)Nc3ccc4sc(SC)nc4c3)s2)c(C)c1 [Compound 174],≥ 40 µM
23,COc1ccc(NC(=O)c2ccc(C(=O)Nc3ccc(C#N)cc3)s2)c(C)c1 [Compound 175],≥ 40 µM
24,COc1ccc(NC(=O)c2ccc(C(=O)Nc3ccc(C(N)=O)cc3)s2)c(C)c1 [Compound 176],≥ 40 µM
25,COc1ccc(NC(=O)c2ccc(C(=O)Nc3ccc(Cn4ccnc4)cc3)s2)c(C)c1 [Compound 177],≥ 40 µM
26,COc1ccc(NC(=O)c2ccc(C(=O)Nc3ccc(-c4nnn[nH]4)cc3)s2)c(C)c1 [Compound 178],≥ 40 µM
27,COc1ccc(NC(=O)c2ccc(C(=O)Nc3ccc(-c4ncn(C)n4)cc3)s2)c(C)c1 [Compound 179],≥ 40 µM
28,COc1ccc(NC(=O)c2ccc(C(=O)Nc3ccc(-n4cncn4)cc3F)s2)c(C)c1 [Compound 180],≥ 40 µM
29,COc1ccc(C(=O)Nc2ccc(C(=O)Nc3ccc(-n4cncn4)cc3)o2)cc1 [Compound 181],≥ 40 µM
30,COc1ccc(C(=O)Nc2ccc(C(=O)N3CCC(Oc4cnccn4)CC3)o2)cc1 [Compound 182],≥ 40 µM
